Experimental findings from patent publication US20070173529A1, “Sulfated bis-cyclic agents” (priority 2003, published 2007) are described below.

Assay [1] relates to T1, human plasma factor Xa (Homo sapiens).
T1 construct: 10 nM human plasma factor Xa; from tissue; host or cells: human plasma
Description: Antithrombin-dependent factor Xa inhibition (residual factor Xa activity, Spectrozyme fXa substrate). It is filed as biochemical. The note with it: 10 μM sulfated compound; 1 μM human plasma antithrombin, 10 nM human plasma factor Xa, pH 6.0, 25° C., 10 min. On the procedure: (§1) Methods. To assay anticoagulant activity, compounds were incubated with 1 μM human plasma antithrombin and 10 nM human plasma factor Xa in 20 mM sodium phosphate buffer, pH 6.0, at 25° C. for 10 min. After incubation, residual factor Xa activity was measured spectrophotometrically using Spectrozyme fXa substrate. From the decrease in residual factor Xa activity as a function of sulfated bis-cyclic agent concentration, the anticoagulant potential of each sample was calculated.
(§2) A key test of in vitro anticoagulant activity is the inhibition of Factor Xa., a critical enzyme involved in blood clotting.
(§3) Each peak was isolated and its factor Xa inhibition potential was determined at concentrations in the range of 1-50 μM.

A further assay deals with T2, human plasma factor Xa (Homo sapiens, UniProt P01008).
T2 construct: 10 nM human plasma factor Xa; from tissue; host or cells: human plasma
T2 sequence (P01008 33-464): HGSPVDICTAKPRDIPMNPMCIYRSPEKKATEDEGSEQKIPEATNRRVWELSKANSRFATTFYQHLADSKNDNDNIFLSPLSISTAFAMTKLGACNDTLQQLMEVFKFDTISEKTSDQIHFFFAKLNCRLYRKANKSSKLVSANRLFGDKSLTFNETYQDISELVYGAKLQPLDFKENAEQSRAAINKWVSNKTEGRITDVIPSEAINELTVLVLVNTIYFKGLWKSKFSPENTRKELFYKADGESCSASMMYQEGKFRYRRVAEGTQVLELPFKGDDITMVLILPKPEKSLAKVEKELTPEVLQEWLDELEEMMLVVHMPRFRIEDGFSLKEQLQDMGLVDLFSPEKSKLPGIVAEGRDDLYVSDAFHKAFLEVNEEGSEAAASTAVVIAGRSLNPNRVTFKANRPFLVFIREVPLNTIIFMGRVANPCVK
Described as above. It is filed as biochemical. Particulars: tested at 1-50 μM. On the procedure:
as §1, §2, §3

T1 sequence (P01008 33-464): as above

With “(3S)-6,7-bis-sulfonato-2-(3,4,5-tris-sulfonato-benzoyl)-1,2,3,4-tetrahydro-isoquinoline-3-carboxylate [Peak P1]”, the “Inhibition (Factor Xa inhibition by sulfated compounds)” value in assay [1] was 86%. The “acceleration of the inhibition of human factor Xa by human plasma antithrombin” value on human plasma factor Xa is “greatly accelerates the inhibition”.
